Measurements: PMC10975012, “The Active Glucuronide Metabolite of the Brain Protectant IMM-H004 with Poor Blood–Brain Barrier Permeability Demonstrates a High Partition in the Rat Brain via Multiple Mechanisms” (Pharmaceutics, 2024)

Tests used:
OATP2B1 = molecular target: T1, OATP2B1 (Homo sapiens, UniProt O94956); assay: Uptake in MDCKⅡ-OATP2B1 overexpressing cells; format: cell-based; conditions: MDCKⅡ-OATP2B1 vs mock, 10 min; IMM-H004G 10 μmol/L
T1 construct: host or cells: MDCKII
T1 sequence (O94956 1-709): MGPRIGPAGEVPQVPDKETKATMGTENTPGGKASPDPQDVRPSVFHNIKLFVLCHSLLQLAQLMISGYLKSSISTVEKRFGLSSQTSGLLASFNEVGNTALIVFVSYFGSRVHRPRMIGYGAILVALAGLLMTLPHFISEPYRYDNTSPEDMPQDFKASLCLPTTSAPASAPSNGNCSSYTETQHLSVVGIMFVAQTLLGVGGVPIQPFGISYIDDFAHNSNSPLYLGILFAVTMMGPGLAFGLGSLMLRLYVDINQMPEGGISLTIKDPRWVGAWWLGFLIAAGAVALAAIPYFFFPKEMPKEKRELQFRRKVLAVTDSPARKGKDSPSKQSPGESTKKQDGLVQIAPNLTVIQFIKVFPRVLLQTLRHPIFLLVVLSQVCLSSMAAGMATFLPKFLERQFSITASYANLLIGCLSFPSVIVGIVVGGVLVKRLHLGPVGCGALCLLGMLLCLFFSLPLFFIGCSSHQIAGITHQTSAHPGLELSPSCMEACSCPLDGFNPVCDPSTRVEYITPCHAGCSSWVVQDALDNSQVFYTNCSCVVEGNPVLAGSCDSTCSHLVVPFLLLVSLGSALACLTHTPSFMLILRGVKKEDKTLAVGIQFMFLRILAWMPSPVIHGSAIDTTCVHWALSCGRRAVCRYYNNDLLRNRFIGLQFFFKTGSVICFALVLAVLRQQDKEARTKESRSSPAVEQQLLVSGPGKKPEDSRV
From the text: (§1) CHO cells and MDCKⅡ cells were stably transfected with lentiviruses carrying human SCLO1A2 (encoding OATP1A2) and SCLO2B1 (encoding OATP2B1), respectively. Cell transfected with lentiviruses carrying empty vectors served as control. Lentiviral plasmid packages were obtained from OBiO Technology (Shanghai, China), and procedures followed the instructions of the virus manual. Stably transfected cells were routinely grown in a 100 mm dish in DMEM with 10% fetal bovine serum. Prior to the experiments, the seeding density of the overexpressing cells in 24-well plates was 4 × 10^5 cells per well, and the medium was supplemented with 2 mM sodium butyrate for 24 h. The cultured cells were washed twice with prewarmed HBSS after removing the medium and then treated with 10 μmol/L IMM-H004G and 100 μmol/L rifampicin (or an equal amount of solvent dimethyl sulfoxide) for 10 min. After incubation, the cells were washed four times with cold HBSS. Follow-up sample processing procedures were as described in Section 2.3.1. E17βG (5 μmol/L) and rosuvastatin (10 μmol/L) were used as positive substrates in CHO-OATP1A2 and MDCKⅡ-OATP2B1 cells, respectively. The MDCKⅡ-MDR1 cells were previously established by our laboratory.

OATP1A2 = molecular target: T2, OATP1A2 (Homo sapiens, UniProt P46721); assay: Uptake in CHO-OATP1A2 overexpressing cells; format: cell-based; conditions: CHO-OATP1A2 vs mock, 10 min; IMM-H004G 10 μmol/L
T2 construct: host or cells: CHO
T2 sequence (P46721 1-670): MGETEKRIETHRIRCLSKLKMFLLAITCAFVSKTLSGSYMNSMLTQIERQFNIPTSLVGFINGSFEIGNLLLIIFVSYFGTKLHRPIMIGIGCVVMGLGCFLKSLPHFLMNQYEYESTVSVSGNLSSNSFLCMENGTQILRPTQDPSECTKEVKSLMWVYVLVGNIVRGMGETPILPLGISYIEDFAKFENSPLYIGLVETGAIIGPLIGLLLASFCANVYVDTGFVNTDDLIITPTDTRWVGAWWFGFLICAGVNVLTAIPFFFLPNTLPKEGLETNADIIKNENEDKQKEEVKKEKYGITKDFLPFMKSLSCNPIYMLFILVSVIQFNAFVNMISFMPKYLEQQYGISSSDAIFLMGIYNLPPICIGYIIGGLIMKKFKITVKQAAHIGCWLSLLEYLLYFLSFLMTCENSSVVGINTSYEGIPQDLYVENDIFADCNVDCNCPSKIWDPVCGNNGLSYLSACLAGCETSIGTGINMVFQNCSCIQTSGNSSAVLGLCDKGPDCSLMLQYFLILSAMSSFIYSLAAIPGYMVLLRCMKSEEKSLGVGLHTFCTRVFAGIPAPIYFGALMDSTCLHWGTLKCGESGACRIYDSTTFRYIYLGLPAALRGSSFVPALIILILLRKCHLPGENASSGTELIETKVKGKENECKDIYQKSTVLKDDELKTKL
From the text: as §1

HEB cells = assay: In vitro metabolism in human brain cells (HEB); format: in vitro ADME; conditions: IMM-H004 1–100 μmol/L, up to 5 h
Protocol: (§2) SH-SY5Y, HEB, and hCMEC/D3 cells were utilized to investigate the in vitro metabolism of IMM-H004 and IMM-H004G in the brain. SH-SY5Y and HEB cells were cultured routinely in Dulbecco’s modified Eagle’s medium (DMEM) containing 10% fetal bovine serum and a 100 U/mL penicillin–100 μg/mL streptomycin solution. hCMEC/D3 cells were seeded on collagen type I coated 24-well plates and cultured in EndoGRO™-MV complete medium following the manufacturer’s guidelines. The cells were incubated at 37 °C, with 5% CO2, and were maintained in a humidified environment. Once the confluence reached 70–80%, the cells were digested using a 0.25% trypsin–EDTA solution, centrifuged at 200× g for 5 min, and then resuspended in a fresh culture medium. For each experiment, after seeding and 24 h incubation, the cells were washed twice with a prewarmed culture medium, and then IMM-H004 or IMM-H004G (1–100 μmol/L) dissolved in the culture medium was added. Incubation was carried out at 37 °C for 5 h or 24 h. After incubation, the supernatants were collected. Subsequently, the cells were washed with cold HBSS three times and lysed in a RIPA lysis buffer (Beyotime Inc., Shanghai, China). The concentrations of IMM-H004 and IMM-H004G were determined by liquid chromatography with tandem mass spectrometry (LC-MS/MS).

hCMEC/D3 cells = assay: In vitro metabolism in human brain cells (hCMEC/D3); format: in vitro ADME; conditions: IMM-H004 1–100 μmol/L
Protocol: as §2

| SMILES | uptake increase in OATP2B1-overexpressing cells compared to control cells (OATP2B1) | uptake increase in OATP1A2-overexpressing cells compared to control cells (OATP1A2) | production of IMM-H004G from IMM-H004 (HEB cells) | production of IMM-H004G from IMM-H004 (hCMEC/D3 cells) |
| --- | --- | --- | --- | --- |
| COc1cc(OC2OC(C(=O)O)C(O)C(O)C2O)cc2oc(=O)c(N3CCN(C)CC3)c(C)c12 (stereo not shown) [IMM-H004G] | 190 fold | 9.7 fold | – | – |
| COc1cc(O)cc2oc(=O)c(N3CCN(C)CC3)c(C)c12 [IMM-H004] | – | – | depended on both time and concentration | not detected |
